Measurements as given in ChEMBL document CHEMBL1128349 (J Med Chem, 1995).

Columns and labels:
[1] = target: T1, Alpha-1D adrenergic receptor (Homo sapiens, UniProt P25100); test: Ability to displace [3H]prazosin from cloned human Alpha-1D adrenergic receptor
T1 sequence (P25100 whole entry): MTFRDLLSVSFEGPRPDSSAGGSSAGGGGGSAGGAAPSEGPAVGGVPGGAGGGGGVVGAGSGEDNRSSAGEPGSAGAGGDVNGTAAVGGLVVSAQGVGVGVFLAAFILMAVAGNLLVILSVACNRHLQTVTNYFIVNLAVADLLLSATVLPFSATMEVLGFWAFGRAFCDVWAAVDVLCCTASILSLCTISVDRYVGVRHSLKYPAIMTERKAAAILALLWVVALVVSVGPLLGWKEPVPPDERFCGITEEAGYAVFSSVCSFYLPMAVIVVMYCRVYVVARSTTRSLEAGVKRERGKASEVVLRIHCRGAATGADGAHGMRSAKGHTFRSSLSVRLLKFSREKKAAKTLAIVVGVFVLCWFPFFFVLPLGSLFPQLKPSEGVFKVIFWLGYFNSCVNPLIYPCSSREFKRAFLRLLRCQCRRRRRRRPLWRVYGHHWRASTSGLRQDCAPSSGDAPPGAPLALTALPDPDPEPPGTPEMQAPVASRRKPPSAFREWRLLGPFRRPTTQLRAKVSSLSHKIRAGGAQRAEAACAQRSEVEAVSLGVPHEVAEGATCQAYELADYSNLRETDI

[2] = target: T2, Alpha-2A adrenergic receptor (Homo sapiens, UniProt P08913); test: Ability to displace [3H]rauwolscine from cloned human Alpha-2A adrenergic receptor
T2 sequence (P08913 whole entry): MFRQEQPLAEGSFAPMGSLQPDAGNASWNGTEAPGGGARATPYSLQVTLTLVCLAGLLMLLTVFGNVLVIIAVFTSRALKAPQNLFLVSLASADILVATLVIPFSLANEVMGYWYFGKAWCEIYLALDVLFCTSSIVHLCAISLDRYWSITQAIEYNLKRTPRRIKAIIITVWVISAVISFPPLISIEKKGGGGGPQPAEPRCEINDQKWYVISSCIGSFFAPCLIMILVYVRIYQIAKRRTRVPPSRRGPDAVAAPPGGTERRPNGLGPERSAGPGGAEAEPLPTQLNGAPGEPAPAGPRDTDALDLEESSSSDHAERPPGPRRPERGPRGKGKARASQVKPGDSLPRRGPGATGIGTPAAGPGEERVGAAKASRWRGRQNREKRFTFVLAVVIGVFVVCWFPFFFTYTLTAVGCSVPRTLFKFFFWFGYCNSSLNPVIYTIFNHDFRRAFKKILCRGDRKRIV

[3] = target: T3, Alpha-2B adrenergic receptor (Homo sapiens, UniProt P18089)
T3 sequence (P18089 whole entry): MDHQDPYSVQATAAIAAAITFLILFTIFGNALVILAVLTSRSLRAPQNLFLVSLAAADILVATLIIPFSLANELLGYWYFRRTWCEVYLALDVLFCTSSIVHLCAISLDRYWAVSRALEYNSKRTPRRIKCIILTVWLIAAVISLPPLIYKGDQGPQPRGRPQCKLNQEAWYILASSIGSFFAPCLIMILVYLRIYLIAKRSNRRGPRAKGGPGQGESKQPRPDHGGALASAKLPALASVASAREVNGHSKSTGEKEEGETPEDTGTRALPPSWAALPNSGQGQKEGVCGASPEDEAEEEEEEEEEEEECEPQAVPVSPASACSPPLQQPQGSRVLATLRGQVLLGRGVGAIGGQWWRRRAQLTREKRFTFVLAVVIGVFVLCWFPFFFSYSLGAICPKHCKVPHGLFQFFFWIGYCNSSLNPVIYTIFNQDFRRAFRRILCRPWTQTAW
Description: Ability to displace [3H]rauwolscine from cloned human Alpha-2B adrenergic receptor

[4] = target: T4, Alpha-1B adrenergic receptor (Homo sapiens, UniProt P35368); test: Ability to displace [3H]prazosin from cloned human Alpha-1B adrenergic receptor
T4 sequence (P35368 whole entry): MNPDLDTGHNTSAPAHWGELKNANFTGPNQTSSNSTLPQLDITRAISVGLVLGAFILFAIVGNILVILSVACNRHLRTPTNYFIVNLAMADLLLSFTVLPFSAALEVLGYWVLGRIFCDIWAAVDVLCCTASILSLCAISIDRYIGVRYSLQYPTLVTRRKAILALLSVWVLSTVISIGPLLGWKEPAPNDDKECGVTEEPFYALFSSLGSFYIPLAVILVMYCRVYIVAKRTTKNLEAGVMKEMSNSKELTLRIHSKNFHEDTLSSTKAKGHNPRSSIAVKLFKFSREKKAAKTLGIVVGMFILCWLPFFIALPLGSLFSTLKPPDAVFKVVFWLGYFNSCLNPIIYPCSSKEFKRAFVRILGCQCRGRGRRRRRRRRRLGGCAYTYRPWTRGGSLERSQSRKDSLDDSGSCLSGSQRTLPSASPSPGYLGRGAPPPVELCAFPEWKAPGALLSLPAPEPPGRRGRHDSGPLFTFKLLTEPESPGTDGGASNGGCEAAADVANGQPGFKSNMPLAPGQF

[5] = target: T5, Alpha-2C adrenergic receptor (Homo sapiens, UniProt P18825); test: Ability to displace [3H]rauwolscine from cloned human Alpha-2C adrenergic receptor
T5 sequence (P18825 whole entry): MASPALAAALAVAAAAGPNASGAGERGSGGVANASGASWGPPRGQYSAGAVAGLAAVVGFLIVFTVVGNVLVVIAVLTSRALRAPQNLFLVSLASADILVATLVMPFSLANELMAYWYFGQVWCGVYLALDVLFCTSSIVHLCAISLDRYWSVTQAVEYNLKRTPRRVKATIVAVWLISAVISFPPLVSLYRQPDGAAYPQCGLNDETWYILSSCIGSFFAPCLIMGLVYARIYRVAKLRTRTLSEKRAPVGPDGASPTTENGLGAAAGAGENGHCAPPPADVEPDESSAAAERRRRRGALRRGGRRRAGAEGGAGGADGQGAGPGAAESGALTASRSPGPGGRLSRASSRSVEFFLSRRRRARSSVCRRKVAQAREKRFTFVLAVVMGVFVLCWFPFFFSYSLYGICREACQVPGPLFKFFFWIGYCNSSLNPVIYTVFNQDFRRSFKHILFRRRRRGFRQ

[6] = target: Voltage-gated L-type calcium channel (Rattus norvegicus, UniProt P22002+Q02485+P27732); test: Displacement of [3H]nitrendipine from rat brain L-type [Ca2+] channel; assay type: tissue-based
[7] = target: T6, Alpha-1A adrenergic receptor (Homo sapiens, UniProt P35348)
T6 sequence (P35348 whole entry): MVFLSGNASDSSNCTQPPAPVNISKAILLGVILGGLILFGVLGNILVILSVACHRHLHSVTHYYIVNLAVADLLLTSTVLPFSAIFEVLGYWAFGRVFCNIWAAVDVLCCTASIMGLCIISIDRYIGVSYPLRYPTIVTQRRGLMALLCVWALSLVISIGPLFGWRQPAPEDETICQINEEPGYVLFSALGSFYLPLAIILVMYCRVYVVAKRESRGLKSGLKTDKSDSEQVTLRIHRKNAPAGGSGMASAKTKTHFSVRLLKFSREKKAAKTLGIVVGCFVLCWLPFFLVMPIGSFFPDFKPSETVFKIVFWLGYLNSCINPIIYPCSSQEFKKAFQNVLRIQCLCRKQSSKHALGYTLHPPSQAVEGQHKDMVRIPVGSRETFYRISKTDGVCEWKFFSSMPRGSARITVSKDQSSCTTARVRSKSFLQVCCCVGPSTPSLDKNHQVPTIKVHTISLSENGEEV

Row | Ki [2] [nM] | Ki [3] [nM] | Ki [4] [nM] | Ki [5] [nM] | Ki [6] [nM] | Ki [7] [nM] | Structure (SMILES) | Ki [1] [nM]
1 | 800 | 570 | 50 | 300 | 250 | 0.32 | CO/C(O)=C1\C(C)=NC(C)=C(C(=O)OCCCN2CCC(c3ccccc3)(c3ccccc3)CC2)C1c1ccc([N+](=O)[O-])cc1 (configuration not stated) | 210
2 | […] |  |  |  | 670 |  | CO/C(O)=C1\C(C)=NC(C)=C(C(=O)NCCCN2CCC(c3ccccc3)(c3ccccc3)CC2)[C@H]1c1ccc([N+](=O)[O-])cc1 | 
3 |  |  |  |  | > 10000 |  | COc1cc2nc(N3CCN(C(=O)c4ccco4)CC3)nc(N)c2cc1OC [PRAZOSIN] | 

Row | Structure (SMILES) | Ki [2] [nM] | Ki [3] [nM] | Ki [4] [nM] | Ki [5] [nM] | Ki [6] [nM] | Ki [7] [nM] | Ki [1] [nM]
4 | COc1cc2nc(N3CCN(C(=O)C4CCCO4)CC3)nc(N)c2cc1OC (configuration not stated) [TERAZOSIN] | 550 |  |  |  |  |  | 3.7
